According to ChEMBL document CHEMBL6109055, “Naphtho[1,2-b][1,4]diazepinedione-Based P2X4 Receptor Antagonists from Structure-Activity Relationship Studies toward PET Tracer Development” (J Med Chem, 2025):

Assays:
P2X purinoceptor 4 = P2X purinoceptor 4 (Homo sapiens, UniProt Q99571); assay: Antagonist activity at human P2X4 receptor overexpressed in human 1321N1 cells assessed as inhibition of ATP-induced calcium responses by Fluo-4 AM/Ca2+ Flux assay; format: cell-based
[1] = Lipophilicity, logD of compound in n-octanol and buffer at pH 7.4 by LC-MS analysis; format: physicochemical
[2] = Plasma protein binding in unknown origin; format: ADME, cell-free; details: read-out: PPB (converted)
[3] = Metabolic stability in C57BL/6 mouse liver microsomes assessed as remaining parent compound by UPLC-UV/MS analysis; format: ADME, Microsome
THP-1 = assay: Inhibition of NLRP3 inflammasome activation in LPS-activated human THP-1 cells assessed as inhibition of LPS/ATP induced IL-1beta secretion at 100 nM preincubated with PMA for 24 hrs followed further stimulated with LPS for 3 hrs and further incubated with compound and ATP for 30 mins by ELISA method; format: cell-based
[4] = In vivo biodistribution in adult female C57Bl/6 mouse assessed as accumulation in liver at about 5 MBq, iv measured after 15 mins by PET imaging analysis; format: ADME, organism-based; details: 0.25 h
[5] = In vivo biodistribution in adult female C57Bl/6 mouse assessed as accumulation in bladder at 5 MBq, iv measured after 2 to 85 mins by PET imaging analysis; format: ADME, organism-based, Urinary bladder; details: time 2-85 min
[6] = Octanol/PBS partition coefficient, log D of the radiolabeled compound at 420 to 460 kBq at pH 7.4 by gamma-counting analysis; format: physicochemical; details: dose 420-460 kBq
[7] = Stability in mouse serum measured up to 90 mins at 3.1 to 8.7 MBq by analytical radio-HPLC analysis; format: ADME, cell-free; details: dose 3.1-8.7 MBq, read-out: Stability
[8] = Stability in human serum measured up to 90 mins at 3.1 to 8.7 MBq by analytical radio-HPLC analysis; format: ADME, cell-free; details: dose 3.1-8.7 MBq, read-out: Stability
[9] = In vivo biodistribution in adult female C57Bl/6 mouse assessed as accumulation in gall bladder at about 5 MBq, iv measured after 30 mins by PET imaging analysis; format: ADME, organism-based; details: 0.5 h
[10] = In vivo biodistribution in adult female C57Bl/6 mouse assessed as accumulation in bladder at 5 MBq, iv measured after 15 to 85 mins by PET imaging analysis; format: ADME, organism-based, Urinary bladder; details: time 15-85 min
[11] = In vivo biodistribution in adult female C57Bl/6 mouse assessed as accumulation in intestine at about 5 MBq, iv measured after 2 to 85 mins by PET imaging analysis; format: ADME, organism-based; details: time 2-85 min

Sequence of P2X purinoceptor 4 (Q99571 whole entry): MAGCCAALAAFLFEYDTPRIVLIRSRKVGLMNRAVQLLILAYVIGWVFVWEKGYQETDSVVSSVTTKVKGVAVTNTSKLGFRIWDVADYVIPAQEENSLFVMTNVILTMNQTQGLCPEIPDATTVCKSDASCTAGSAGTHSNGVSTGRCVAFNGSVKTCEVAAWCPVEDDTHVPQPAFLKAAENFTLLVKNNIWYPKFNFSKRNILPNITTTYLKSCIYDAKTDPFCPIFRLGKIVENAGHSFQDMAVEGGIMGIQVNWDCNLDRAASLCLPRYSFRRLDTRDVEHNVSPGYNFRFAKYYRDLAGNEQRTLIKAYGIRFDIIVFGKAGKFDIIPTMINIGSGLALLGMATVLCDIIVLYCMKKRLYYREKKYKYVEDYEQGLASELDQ

SMILES | IC50 (P2X purinoceptor 4; read-out: IC50) [nM] | further results
O=C1CC(=O)N(c2ccc(NC(=O)c3ccccc3F)cc2)c2ccc3ccccc3c2N1 | 2300 | 
Nc1ccc(N2C(=O)CC(=O)Nc3c2ccc2ccccc32)cn1 | 9920 | 
O=C1CC(=O)N(c2ccc(NS(=O)(=O)c3ccc(F)cc3Br)cc2)c2ccc3ccccc3c2N1 | 64 | 
O=C1CC(=O)N(c2ccc(NS(=O)(=O)c3cccnc3F)cc2)c2ccc3ccccc3c2N1 | 1120 | logD [1]: 1.78; fraction unbound [2]: 0.06; Stability [3]: 95%; IC50 (P2X purinoceptor 4; read-out: pIC50 (converted)): 1100 nM
O=C1CC(=O)N(c2ccc(NS(=O)(=O)C3CCCCC3)cc2)c2ccc3ccccc3c2N1 | 2580 | 
O=C1CC(=O)N(c2ccc(NS(=O)(=O)Cc3ccccc3)cc2)c2ccc3ccccc3c2N1 | 191 | 
O=C1CC(=O)N(c2ccc(NS(=O)(=O)c3ccccc3Br)cc2)c2ccc3ccccc3c2N1 | 240 | 
O=C(Cc1cc(Br)ccc1Cl)Nc1ccc(N2C(=O)CC(=O)Nc3c2ccc2ccccc32)cc1 | 1000 | 
COc1ccc(S(=O)(=O)Nc2ccc(N3C(=O)CC(=O)Nc4c3ccc3ccccc43)cc2)c(Cl)c1 | 5970 | 
O=C1CC(=O)N(c2ccc(NS(=O)(=O)Cc3c(Cl)cccc3Cl)cc2)c2ccc3ccccc3c2N1 | 74 | 
Cc1cc(F)ccc1S(=O)(=O)Nc1ccc(N2C(=O)CC(=O)Nc3c2ccc2ccccc32)cc1 |  | inhibition (THP-1): Active; Compund More Potent Than Bay1797; fraction unbound [2]: < 0.02; Stability [3]: 93%
COc1cc(Br)ccc1S(=O)(=O)Nc1ccc(N2C(=O)CC(=O)Nc3c2ccc2ccccc32)cc1 | 344 | 
Cc1cccc(Cl)c1S(=O)(=O)Nc1ccc(N2C(=O)CC(=O)Nc3c2ccc2ccccc32)cc1 | 385 | 
O=C1CC(=O)N(c2ccc(NS(=O)(=O)c3cc(Br)ccc3Cl)cc2)c2ccc3ccccc3c2N1 | 175 | 
N#Cc1ccc(S(=O)(=O)Nc2ccc(N3C(=O)CC(=O)Nc4c3ccc3ccccc43)cc2)c(Cl)c1 | 14100 | 
O=C1CC(=O)N(c2ccc(NS(=O)(=O)c3ccccc3Cl)cc2)c2ccc3ccccc3c2N1 | 445 | 
Cc1cc(F)ccc1CS(=O)(=O)Nc1ccc(N2C(=O)CC(=O)Nc3c2ccc2ccccc32)nc1 | 25 | logD [1]: 2.36; fraction unbound [2]: 0.05; Stability [3]: 57%
Cc1ccc(F)cc1S(=O)(=O)Nc1ccc(N2C(=O)CC(=O)Nc3c2ccc2ccccc32)cc1 | 179 | 
O=C1CC(=O)N(c2ccc(NC(=O)c3ccccc3Cl)cc2)c2ccc3ccccc3c2N1 | 481 | 
COc1ccc(Br)cc1S(=O)(=O)Nc1ccc(N2C(=O)CC(=O)Nc3c2ccc2ccccc32)cc1 | 2330 | 
O=C1CC(=O)N(c2ccc(NC(=O)c3cccnc3Cl)cc2)c2ccc3ccccc3c2N1 | 780 | 
COc1cc(F)ccc1S(=O)(=O)Nc1ccc(N2C(=O)CC(=O)Nc3c2ccc2ccccc32)cc1 | 59 | 
COc1ccccc1S(=O)(=O)Nc1ccc(N2C(=O)CC(=O)Nc3c2ccc2ccccc32)cc1 | 90 | 

SMILES | IC50 (P2X purinoceptor 4; read-out: IC50) [nM] | further results
O=C1CC(=O)N(c2ccc(NS(=O)(=O)Cc3ccc(Br)cc3Cl)cc2)c2ccc3ccccc3c2N1 | 531 | 
O=C1CC(=O)N(c2ccc(NS(=O)(=O)Cc3cc(F)ccc3Cl)cc2)c2ccc3ccccc3c2N1 | 81 | 
Cc1cc(Br)ccc1S(=O)(=O)Nc1ccc(N2C(=O)CC(=O)Nc3c2ccc2ccccc32)cc1 | 263 | 
O=C1CC(=O)N(c2ccc(NS(=O)(=O)Cc3ccc(B(O)O)cc3Cl)cc2)c2ccc3ccccc3c2N1 | 295 | 
O=C1CC(=O)N(c2ccc(NS(=O)(=O)c3cccnc3Cl)cc2)c2ccc3ccccc3c2N1 | 318 | 
O=C1CC(=O)N(c2ccc(NS(=O)(=O)Cc3ccccc3Cl)cn2)c2ccc3ccccc3c2N1 | 17 | 
O=C1CC(=O)N(c2ccc(NS(=O)(=O)Cc3ccc(F)cc3Br)cc2)c2ccc3ccccc3c2N1 | 76 | 
O=C1CC(=O)N(c2ccc(NS(=O)(=O)Cc3ccc(F)cc3)cc2)c2ccc3ccccc3c2N1 | 88 | 
O=C1CC(=O)N(c2ccc(NS(=O)(=O)c3ccccc3F)cc2)c2ccc3ccccc3c2N1 | 1170 | 
O=C1CC(=O)N(c2ccc(NS(=O)(=O)c3c(Cl)cccc3Cl)cc2)c2ccc3ccccc3c2N1 | 650 | 
Nc1ccc(N2C(=O)CC(=O)Nc3c2ccc2ccccc32)cc1 | 990 | 
CNCC[C@H](Oc1cccc2ccccc12)c1cccs1 [DULOXETINE] | 5880 | 
COc1ccc(F)cc1S(=O)(=O)Nc1ccc(N2C(=O)CC(=O)Nc3c2ccc2ccccc32)cc1 | 473 | 
Cc1cc([18F])ccc1S(=O)(=O)Nc1ccc(N2C(=O)CC(=O)Nc3c2ccc2ccccc32)cc1 |  | Drug uptake [4]: Active; Drug uptake [5]: Not_active; logD [6]: 3.5; remaining at […] [7]: > 99%; remaining at […] [8]: > 99%; Drug uptake [9]: Active
CN1C(=O)CC(=O)N(c2ccc(N(C)S(=O)(=O)c3ccccc3)cc2)c2ccc3ccccc3c21 | > 10000 | 
O=C1CC(=O)N(c2ccc(NS(=O)(=O)c3ccccc3I)cc2)c2ccc3ccccc3c2N1 | 264 | 
Cc1cc([18F])ccc1CS(=O)(=O)Nc1ccc(N2C(=O)CC(=O)Nc3c2ccc2ccccc32)cc1 |  | Drug uptake [10]: Active; Drug uptake [11]: Active; logD [6]: 3.43; remaining at […] [7]: > 99%; remaining at […] [8]: > 99%
O=C1CC(=O)N(c2ccc(NS(=O)(=O)c3ccc(F)cc3Cl)cc2)c2ccc3ccccc3c2N1 | 128 | logD [1]: 3.55; fraction unbound [2]: < 0.02; Stability [3]: 93%
O=C1CC(=O)N(c2ccc(NC(=O)c3cccnc3[N+](=O)[O-])cc2)c2ccc3ccccc3c2N1 | 2280 | 
Cc1ccccc1S(=O)(=O)Nc1ccc(N2C(=O)CC(=O)Nc3c2ccc2ccccc32)cc1 | 115 | 
O=C1CC(=O)N(c2ccc(NS(=O)(=O)c3cccc4ccccc34)cc2)c2ccc3ccccc3c2N1 | 1650 | 
O=C1CC(=O)N(c2ccc(NS(=O)(=O)Cc3ccccc3Cl)nc2)c2ccc3ccccc3c2N1 | 76 | 
O=C1CC(=O)N(c2ccc(NS(=O)(=O)Cc3c(F)cccc3Cl)cc2)c2ccc3ccccc3c2N1 | 108 | 

SMILES | IC50 (P2X purinoceptor 4; read-out: IC50) [nM] | further results
Cc1cc(F)ccc1CS(=O)(=O)Nc1ccc(N2C(=O)CC(=O)Nc3c2ccc2ccccc32)cn1 | 14 | logD [1]: 2.59; fraction unbound [2]: 0.03; Stability [3]: 67%
O=C1CC(=O)N(c2ccc(NC(=O)c3ccccc3)cc2)c2ccc3ccccc3c2N1 | 585 | 
O=C1CC(=O)N(c2ccc(NS(=O)(=O)c3ccc(C(F)(F)F)cc3Cl)cc2)c2ccc3ccccc3c2N1 | 3390 | 
O=C(Cc1cc(F)ccc1Cl)Nc1ccc(N2C(=O)CC(=O)Nc3c2ccc2ccccc32)cc1 | 442 | 
CN(c1ccc(N2C(=O)CC(=O)Nc3c2ccc2ccccc32)cc1)S(=O)(=O)c1ccccc1 | 683 | 
O=C1CC(=O)N(c2ccc(NS(=O)(=O)Cc3ccc(F)cc3Cl)cc2)c2ccc3ccccc3c2N1 | 23 | logD [1]: 3.71; fraction unbound [2]: < 0.02; Stability [3]: 58%
Cc1ccc(Cl)c(S(=O)(=O)Nc2ccc(N3C(=O)CC(=O)Nc4c3ccc3ccccc43)cc2)c1 | 373 | 
Nc1ccc(N2C(=O)CC(=O)Nc3c2ccc2ccccc32)nc1 | 6460 | 
Cc1cc(Br)ccc1CS(=O)(=O)Nc1ccc(N2C(=O)CC(=O)Nc3c2ccc2ccccc32)cc1 | 97 | 
O=C1CC(=O)N(c2ccc(NS(=O)(=O)c3cccnc3[N+](=O)[O-])cc2)c2ccc3ccccc3c2N1 | 1000 | 
Cc1cc(B(O)O)ccc1CS(=O)(=O)Nc1ccc(N2C(=O)CC(=O)Nc3c2ccc2ccccc32)cc1 | 372 | 
O=C1CC(=O)N(c2ccc(NS(=O)(=O)c3cc(C(F)(F)F)ccc3Cl)cc2)c2ccc3ccccc3c2N1 | 2730 | 
Cc1cc(B(O)O)ccc1S(=O)(=O)Nc1ccc(N2C(=O)CC(=O)Nc3c2ccc2ccccc32)cc1 | 48 | 
O=C1CC(=O)N(c2ccccc2)c2ccc3ccccc3c2N1 | 9280 | 
O=C1CC(=O)N(c2ccc(NC(=O)c3cccnc3F)cc2)c2ccc3ccccc3c2N1 | 2410 | 
O=C1CC(=O)N(c2ccc(NS(=O)(=O)Cc3ccccc3Cl)cc2)c2ccc3ccccc3c2N1 |  | logD [1]: 3.39; fraction unbound [2]: < 0.02; Stability [3]: 71%
O=C1CC(=O)N(c2ccc(NS(=O)(=O)c3ccc(F)cc3)cc2)c2ccc3ccccc3c2N1 | 24800 | 
Cc1cc(F)ccc1CS(=O)(=O)Nc1ccc(N2C(=O)CC(=O)Nc3c2ccc2ccccc32)cc1 |  | inhibition (THP-1): Active; Compund More Potent Than Bay1797; fraction unbound [2]: < 0.02; Stability [3]: 64%; IC50 (P2X purinoceptor 4; read-out: pIC50 (converted)): 7.59 nM
COc1ccc(S(=O)(=O)Nc2ccc(N3C(=O)CC(=O)Nc4c3ccc3ccccc43)cc2)cc1 | 3950 | 
O=C1CC(=O)N(c2ccc(NS(=O)(=O)c3ccc(B(O)O)cc3Cl)cc2)c2ccc3ccccc3c2N1 | 891 | 
O=C1CC(=O)N(c2ccc(NS(=O)(=O)c3cc(F)ccc3Cl)cc2)c2ccc3ccccc3c2N1 | 135 | logD [1]: 3.25; fraction unbound [2]: < 0.02; Stability [3]: 98%
O=C1CC(=O)N(c2ccc(NS(=O)(=O)c3ccc(Br)cc3Cl)cc2)c2ccc3ccccc3c2N1 | 1590 | 
